From patent US11090319B2, “Therapeutic uses of pharmaceutical compositions comprising cyclic boronic acid ester derivatives” (Melinta Subsidiary Corp., priority 2010, dated 2021)

Assays:
Assay in all cases: Ceftazidime MIC with fixed concentration of BLI
Format in all cases: cell-based
[1] = system: ECL1002 Enterobacter cloacae Hyper AmpC expression
Experimental: (§1) Next, ceftazidime potentiation activity of several cyclic boronic acid ester derivatives was tested using a larger panel of strains expressing β-lactamase hydrolyzing enzymes. Ceftazidime MICs were determined alone and in the presence of fixed concentrations of various cyclic boronic acid ester derivatives.

[2] = system: AB1057 Acinetobacter baumannii OXA-58; conditions: AB1057 OXA-58
Experimental: as §1

[3] = system: EC1006 Escherichia coli FOX-5; conditions: EC1006 FOX-5
Experimental: as §1

[4] = system: KP1005 Klebsiella pneumoniae CTX-M-14; conditions: KP1005 CTX-M-14
Experimental: as §1

[5] = system: KP1008 Klebsiella pneumoniae KPC-2; conditions: KP1008 KPC-2
Experimental: as §1

[6] = system: ec306 Escherichia coli SHV-2; conditions: ec306 SHV-2
Experimental: as §1

[7] = system: ec309 Escherichia coli MIR-1; conditions: ec309 MIR-1
Experimental: as §1

[8] = system: ec303 Escherichia coli TEM-12; conditions: ec303 TEM-12
Experimental: as §1

[9] = system: KP1010 Klebsiella pneumoniae SHV-12; conditions: KP1010 SHV-12
Experimental: as §1

[10] = system: ec300 Escherichia coli TEM-3; conditions: ec300 TEM-3
Experimental: as §1

[11] = system: EC1010 Escherichia coli CMY-6; conditions: EC1010 CMY-6
Experimental: as §1

[12] = system: ec307 Escherichia coli SHV-4; conditions: ec307 SHV-4
Experimental: as §1

[13] = system: ec308 Escherichia coli SHV-5; conditions: ec308 SHV-5
Experimental: as §1

[14] = system: EC1011 Escherichia coli TEM-26; conditions: EC1011 TEM-26
Experimental: as §1

[15] = system: PAM2035 Pseudomonas aeruginosa ampC mexA:tet
Experimental: as §1

[16] = system: ec310 Escherichia coli ACT-1; conditions: ec310 ACT-1
Experimental: as §1

[17] = system: pa1063 Pseudomonas aeruginosa GES-1; conditions: pa1063 GES-1
Experimental: as §1

[18] = system: AB1054 Acinetobacter baumannii OXA-23; conditions: AB1054 OXA-23
Experimental: as §1

[19] = system: KP1004 Klebsiella pneumoniae KPC-2; conditions: KP1004 KPC-2
Experimental: as §1

[20] = system: EC1009 Escherichia coli TEM-10; conditions: EC1009 TEM-10
Experimental: as §1

[21] = system: ec302 Escherichia coli TEM-10; conditions: ec302 TEM-10
Experimental: as §1

[22] = system: KP1009 Klebsiella pneumoniae CTX-M-15; conditions: KP1009 CTX-M-15
Experimental: as §1

[23] = system: ec301 Escherichia coli TEM-6; conditions: ec301 TEM-6
Experimental: as §1

[24] = system: EC1014 Escherichia coli DHA-1; conditions: EC1014 DHA-1
Experimental: as §1

[25] = system: KP1007 Klebsiella pneumoniae OXA-10; conditions: KP1007 OXA-10
Experimental: as §1

[26] = system: CF1000 Citrobacter freundii Hyper AmpC expression
Experimental: as §1

[27] = system: EC1012 Escherichia coli TEM-12; conditions: EC1012 TEM-12
Experimental: as §1

[28] = system: EC1008 Escherichia coli CTX-M3
Experimental: as §1

[29] = system: EC1004 Escherichia coli CMY-2; conditions: EC1004 CMY-2
Experimental: as §1

[30] = system: KX1000 Klebsiella oxytoca OXA-2; conditions: KX1000 OXA-2
Experimental: as §1

[31] = system: KP1012 Klebsiella pneumoniae SHV-18; conditions: KP1012 SHV-18
Experimental: as §1

[32] = Acinetobacter baumannii, read-out: Ceftazidime MIC Alone
[33] = Escherichia coli, read-out: Ceftazidime MIC Alone
[34] = Klebsiella pneumoniae, read-out: Ceftazidime MIC Alone
[35] = Pseudomonas aeruginosa, read-out: Ceftazidime MIC Alone

## CC(C)(O/N=C(\C(=O)N[C@@H]1C(=O)N2C(C(=O)[O-])=C(C[n+]3ccccc3)CS[C@H]12)c1csc(N)n1)C(=O)O [Ceftazidime, reference compound]
[1]; Enterobacter cloacae, read-out: Ceftazidime MIC Alone
  MIC: > 8 µg/mL
[2]; [32]
  MIC: > 8 µg/mL
[3]; [33]
  MIC: > 8 µg/mL
[4]; [34]
  MIC: > 8 µg/mL
[5]; [34]
  MIC: 1 to 8 µg/mL
[6]; [33]
  MIC: > 8 µg/mL
[7]; [33]
  MIC: > 8 µg/mL
[8]; [33]
  MIC: > 8 µg/mL
[9]; [34]
  MIC: > 8 µg/mL
[10]; [33]
  MIC: > 8 µg/mL
[11]; [33]
  MIC: > 8 µg/mL
[12]; [33]
  MIC: > 8 µg/mL
[13]; [33]
  MIC: > 8 µg/mL
[14]; [33]
  MIC: > 8 µg/mL
[15]; [35]
  MIC: > 8 µg/mL
[16]; [33]
  MIC: > 8 µg/mL
[17]; [35]
  MIC: > 8 µg/mL
[18]; [32]
  MIC: > 8 µg/mL
[19]; [34]
  MIC: > 8 µg/mL
[20]; [33]
  MIC: > 8 µg/mL
[21]; [33]
  MIC: > 8 µg/mL
[22]; [34]
  MIC: > 8 µg/mL
[23]; [33]
  MIC: > 8 µg/mL
[24]; [33]
  MIC: > 8 µg/mL
[25]; [34]
  MIC: > 8 µg/mL
[26]; Citrobacter freundii, read-out: Ceftazidime MIC Alone
  MIC: > 8 µg/mL
[27]; [33]
  MIC: > 8 µg/mL
[28]; [33]
  MIC: > 8 µg/mL
[29]; [33]
  MIC: > 8 µg/mL
[30]; Klebsiella oxytoca, read-out: Ceftazidime MIC Alone
  MIC: > 8 µg/mL
[31]; [34]
  MIC: > 8 µg/mL

## CC(=O)N[C@H]1CCC(CC(=O)O)OB1O (stereo partly drawn) [Compound 3, 2-((3R)-3-acetamido-2-hydroxy-1,2-oxaborinan-6-yl)acetic acid]
[1]; derivative at 10 μg/mL
  Ceftazidime MIC with cyclic boronic acid ester derivative: Z (MIC of greater than 8 μg/mL)
[2]; derivative at 10 μg/mL
  Ceftazidime MIC with cyclic boronic acid ester derivative: Z (MIC of greater than 8 μg/mL)
[3]; derivative at 10 μg/mL
  Ceftazidime MIC with cyclic boronic acid ester derivative: Y (MIC of greater than 1 μg/mL to 8 μg/mL)
[4]; derivative at 10 μg/mL
  Ceftazidime MIC with cyclic boronic acid ester derivative: Z (MIC of greater than 8 μg/mL)
[5]; derivative at 10 μg/mL
  Ceftazidime MIC with cyclic boronic acid ester derivative: X (MIC of 1 μg/mL or less)
[6]; derivative at 10 μg/mL
  Ceftazidime MIC with cyclic boronic acid ester derivative: Z (MIC of greater than 8 μg/mL)
[7]; derivative at 10 μg/mL
  Ceftazidime MIC with cyclic boronic acid ester derivative: Y (MIC of greater than 1 μg/mL to 8 μg/mL)
[8]; derivative at 10 μg/mL
  Ceftazidime MIC with cyclic boronic acid ester derivative: Z (MIC of greater than 8 μg/mL)
[9]; derivative at 10 μg/mL
  Ceftazidime MIC with cyclic boronic acid ester derivative: Z (MIC of greater than 8 μg/mL)
[10]; derivative at 10 μg/mL
  Ceftazidime MIC with cyclic boronic acid ester derivative: Z (MIC of greater than 8 μg/mL)
[11]; derivative at 10 μg/mL
  Ceftazidime MIC with cyclic boronic acid ester derivative: Z (MIC of greater than 8 μg/mL)
[12]; derivative at 10 μg/mL
  Ceftazidime MIC with cyclic boronic acid ester derivative: Z (MIC of greater than 8 μg/mL)
[13]; derivative at 10 μg/mL
  Ceftazidime MIC with cyclic boronic acid ester derivative: Z (MIC of greater than 8 μg/mL)
[14]; derivative at 10 μg/mL
  Ceftazidime MIC with cyclic boronic acid ester derivative: Z (MIC of greater than 8 μg/mL)
[15]; derivative at 10 μg/mL
  Ceftazidime MIC with cyclic boronic acid ester derivative: Z (MIC of greater than 8 μg/mL)
[16]; derivative at 10 μg/mL
  Ceftazidime MIC with cyclic boronic acid ester derivative: Y (MIC of greater than 1 μg/mL to 8 μg/mL)
[17]; derivative at 10 μg/mL
  Ceftazidime MIC with cyclic boronic acid ester derivative: Z (MIC of greater than 8 μg/mL)
[18]; derivative at 10 μg/mL
  Ceftazidime MIC with cyclic boronic acid ester derivative: Z (MIC of greater than 8 μg/mL)
[19]; derivative at 10 μg/mL
  Ceftazidime MIC with cyclic boronic acid ester derivative: Y (MIC of greater than 1 μg/mL to 8 μg/mL)
[20]; derivative at 10 μg/mL
  Ceftazidime MIC with cyclic boronic acid ester derivative: Z (MIC of greater than 8 μg/mL)
[21]; derivative at 10 μg/mL
  Ceftazidime MIC with cyclic boronic acid ester derivative: Z (MIC of greater than 8 μg/mL)
[22]; derivative at 10 μg/mL
  Ceftazidime MIC with cyclic boronic acid ester derivative: Z (MIC of greater than 8 μg/mL)
[23]; derivative at 10 μg/mL
  Ceftazidime MIC with cyclic boronic acid ester derivative: Z (MIC of greater than 8 μg/mL)
[24]; derivative at 10 μg/mL
  Ceftazidime MIC with cyclic boronic acid ester derivative: Y (MIC of greater than 1 μg/mL to 8 μg/mL)
[25]; derivative at 10 μg/mL
  Ceftazidime MIC with cyclic boronic acid ester derivative: Z (MIC of greater than 8 μg/mL)
[26]; derivative at 10 μg/mL
  Ceftazidime MIC with cyclic boronic acid ester derivative: Z (MIC of greater than 8 μg/mL)
[27]; derivative at 10 μg/mL
  Ceftazidime MIC with cyclic boronic acid ester derivative: Z (MIC of greater than 8 μg/mL)
[28]; derivative at 10 μg/mL
  Ceftazidime MIC with cyclic boronic acid ester derivative: Y (MIC of greater than 1 μg/mL to 8 μg/mL)
[29]; derivative at 10 μg/mL
  Ceftazidime MIC with cyclic boronic acid ester derivative: Y (MIC of greater than 1 μg/mL to 8 μg/mL)
[30]; derivative at 10 μg/mL
  Ceftazidime MIC with cyclic boronic acid ester derivative: Z (MIC of greater than 8 μg/mL)
[31]; derivative at 10 μg/mL
  Ceftazidime MIC with cyclic boronic acid ester derivative: Z (MIC of greater than 8 μg/mL)
